Measurements taken from patent publication US20140093489A1, “NUTRITIONAL SUPPLEMENTS FOR EYE HEALTH AND RELATED METHODS” (priority 2012, published 2014).
Read-outs that look alike come from different tables or passages of the source.

Experiments:
[1] = 60 mg/day zinc for 6 weeks
Experimental: Plasma zinc (μg/ml) response to zinc supplementation as gluconate (GLUC) or glycinate chelate (CHE). Young adult females were given 60 mg/day zinc for 6 weeks.

[2] = system: plasma extracellular superoxide dismutase; conditions: rats fed the copper at adequate level for 6 weeks, unpaired t-test P<0.01
Text: FIG. 4. Comparison of adequate copper intake as sulfate or glycinate for effects on plasma extracellular superoxide dismutase activities in rats. Rats were fed the copper for 6 weeks. […] Values are means±SD in activity units/ml.
Copper is another important cofactor for metalloenzymes, and is a second necessary cofactor for superoxide dismutase.

[3] = Coenzyme Q supplementation effect on serum vitamin C; format: in vivo
Text: FIG. 1. Coenzyme Q supplementation effect on serum vitamin C (μg/ml). Subjects (N=12) were given coenzyme Q for 2 weeks with blood taken pre and post intervention. Values are means±SD.
Coenzyme Q has antioxidant properties. This molecule is found in the diet and is made by the body. Body production declines with age. Absorption of orally ingested coenzyme Q can be low, though certain forms work better than others.

[4] = one dose of zinc, blood samples at 0-4 hours, n=12, ANOVA+Tukey p<0.05
Experimental: FIG. 2. Relative zinc absorption from three different forms of zinc. Subjects (n=12) were given one dose of zinc with blood samples taken at 0, 1, 2, 3, and 4 hours. Erythrocyte (red blood cell) zinc was analyzed for each time point with area under the curve used as a measure of relative absorption. The order of the different forms of zinc was randomly determined for each subject. A washout of at least 2 weeks occurred between testings of the different forms of zinc. Values are means±SD.
Zinc is important in maintaining the health of an eye's retina and is an essential part of more than 100 enzymes involved in digestion, metabolism, reproduction, and wound healing. […] (FIG. 3).

zinc gluconate [reference compound]
plasma zinc (μg/ml), post treatment vs pre-treatment [1]: statistically significant decrease

NCC(=O)[O-].NCC(=O)[O-].[Cu+2] [copper glycinate]
plasma extracellular superoxide dismutase activities (activity units/ml) [2]: higher activities of a plasma copper enzyme than copper sulfate | plasma extracellular superoxide dismutase activities (activity units/ml) ([2]; listed as Glycinate): significantly different from sulfate values

COC1=C(OC)C(=O)C(C/C=C(\C)CC/C=C(\C)CC/C=C(\C)CC/C=C(\C)CC/C=C(\C)CC/C=C(\C)CC/C=C(\C)CC/C=C(\C)CC/C=C(\C)CCC=C(C)C)=C(C)C1=O [Coenzyme Q]
serum vitamin C (μg/ml), post-values vs pre-values ([3]; coenzyme Q for 2 weeks, N=12, paired t-test P<0.001): significantly different from pre-values | plasma concentrations of active vitamin C ([3]; well-absorbed form of coenzyme Q, FIG. 1): greatly increase plasma concentrations of active vitamin C

NCC(=O)[O-].NCC(=O)[O-].[Zn+2] [zinc glycinate]
plasma zinc (μg/ml), post treatment vs pre-treatment [1]: significantly different from pre-treatment | relative zinc absorption (erythrocyte zinc area under the curve) [4]: better absorbed than zinc oxide | relative zinc absorption (erythrocyte zinc area under the curve) ([4]; listed as Zinc chelate): differed from the other two groups
